Reference: patent publication US20240109879A1, “BENZIMIDAZOLE COMPOUND AND APPLICATION THEREOF” (Medshine Discovery Inc., priority 2020, published 2024)

What was measured:
[1] = Pharmacokinetic study in CD-1 mice (intravenous injection and oral gavage); format: in vivo; settings: male CD-1 mice
Text: Assay Example 2: Pharmacokinetic Study of Compounds of the Present Disclosure
CD-1 mice (male, 5-6 weeks old, Shanghai Family Planning Research Institute)
Injection: To assay pharmacokinetic characteristics of rodents after intravenous injection administration of compounds by a standard protocol. In the assay, candidate compounds were formulated into clear solutions, and administered to mice as a single intravenous injection. The vehicle for the intravenous injection was a mixed vehicle formulated with 5% of dimethyl sulfoxide and 95% of 10% hydroxypropyl β-cyclodextrin. In this assay, two male CD-1 mice were used for intravenous injection administration at a dose of 0.5 mg/kg. Plasma samples were collected at 0.083, 0.25, 0.5, 1, 2, 4, 8 and 24 h after administration. Whole blood samples were collected within 24 hours, and centrifuged at 3000 g for 15 minutes. The supernatants were separated to obtain plasma samples. To the plasma samples was added 20 times volume of acetonitrile solution containing internal standard to precipitate protein. The mixtures were vortexed and centrifuged. The supernatants were taken for injection. Plasma drug concentration was quantitatively analyzed by LC-MS/MS analysis method, and pharmacokinetic parameters (such as clearance (CL), half-life (T1/2), […] (Vdss), area under the drug-time curve (AUC0-last), etc.) were calculated.
Oral: To assay pharmacokinetic characteristics of rodents after oral administration of compounds by a standard protocol. In the assay, candidate compounds were formulated into homogeneous opaque suspensions, and given to the mice for a single oral administration. The vehicle for the oral administration was a mixed vehicle formulated with 5% of dimethyl sulfoxide and 95% of 0.5% methylcellulose. In this assay, two male CD-1 mice were used for oral gavage administration at a dose of 3 mg/kg. Plasma samples were collected at 0.25, 0.5, 1, 2, 4, 8 and 24 h after administration. Whole blood samples were collected within 24 hours, and centrifuged at 3000 g for 15 minutes. The supernatants were separated to obtain plasma samples. To the plasma samples was added 20 times volume of acetonitrile solution containing internal standard to precipitate protein. The mixtures were vortexed and centrifuged. The supernatants were taken for injection. Plasma drug concentration was quantitatively analyzed by LC-MS/MS analysis method, and pharmacokinetic parameters (such as peak concentration (Cmax), half-life (T1/2), area under the drug-time curve (AUC0-last), etc.) were calculated.

p300 = p300 (Homo sapiens (Human), UniProt Q09472); test: Assay of p300 protein activity (HTRF, p300-GST with Histone H4 (1-21) K5/8/12/16Ac-GG-Biotin peptide ligand); format: binding; settings: 5 nM p300-GST, 50 nM peptide ligand
Experimental: (§1) Assay Example 1: Assay of p300 and CBP Protein Activity
(§2) Reaction buffer: 25 mM HEPES, pH 7.5, 25 mM NaCl, 0.025% CHAPS, 0.025% BSA, 0.5% DMSO.
(§3) Standard Reaction Conditions:
(§4) 5 nM p300-GST, 50 nM peptide ligand.
(§5) Reaction Procedure: • 1. 2.5×BRD was added to the wells of a reaction plate, except for control wells without BRD to which buffer was added instead. • 2. Compounds in 100% DMSO were delivered into the BRD mixture by acoustic technology (Echo550; nanoliter range). The plate was spun down. The mixture was incubated at room temperature for 30 min. • 3. 5×peptide ligand was delivered. The plate was spun down. The mixture was incubated at room temperature for 10 min. • 4. 5×HTRF detection mixture was delivered. The plate was spun down and the mixture was incubated in the dark for 2 h. • 5. A measurement of HTRF was performed with an Envision reader (Ex/Em=320/615, 665 nm). • 6. A HTRF ratio was calculated as follows: [em 665 nm/em 615 nm]*10000.
(§6) The background-subtracted signal (no protein as background) was converted to % bound relative to the DMSO control. Data were analyzed using GraphPad Prism 4 with “sigmoidal dose-response (variable slope)”; and a 4-parameter analysis was performed using Hill slope.
(§7) Constraints: • Bottom=Constant equal to 0 • Top=Must be less than 120

CBP = CBP (Homo sapiens (Human), UniProt Q92793); test: Assay of CBP protein activity (HTRF, BRD with acetylated Histone H4 peptide ligand); format: binding
Experimental: as §1, §2, §3, §4, §5, §6, §7

p300, sequence (Q09472 1049-1156): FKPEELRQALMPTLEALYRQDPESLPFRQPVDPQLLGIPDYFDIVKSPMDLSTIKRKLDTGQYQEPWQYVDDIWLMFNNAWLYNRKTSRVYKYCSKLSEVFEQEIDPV
CBP, sequence (Q92793 1085-1192): as the sequence (Q09472 1049-1156) above, with S47N, I73V, Y93F, S98A counted along it

For COC1CCC(n2c([C@@H]3C[C@H]4C[C@H]4C(=O)N3c3ccc(F)c(F)c3)nc3cc(-c4c(C)noc4C)ccc32)CC1 (single isomer, unassigned) [Compound 3B], the “Bioavailability F (%)” value ([1]; gavage 3 mg/kg vs intravenous 0.5 mg/kg) was 64%, the “Area under curve (0-inf) AUC0-inf” value ([1]; gavage, 3 mg/kg) was 2.606 µM·h and the “Area under curve (0-t) AUC0-last” value ([1]; gavage, 3 mg/kg) was 2.577 µM·h. For the same molecule, the “Time to peak Tmax” value ([1]; gavage, 3 mg/kg) was 45 min, the “half-life T1/2” value ([1]; gavage, 3 mg/kg) was 67.2 min and the Cmax ([1]; gavage, 3 mg/kg, read-out: Plasma drug concentration Cmax) was 697 nM. For the same molecule, the “Apparent distribution volume Vdss” value ([1]; intravenous, 0.5 mg/kg) was 1.65 L/kg, the “Area under curve (0-inf) AUC0-inf” value ([1]; intravenous, 0.5 mg/kg) was 0.676 µM·h and the “Area under curve (0-t) AUC0-last” value ([1]; intravenous, 0.5 mg/kg) was 0.665 µM·h. For the same molecule, the “Clearance Cl” value ([1]; intravenous, 0.5 mg/kg) was 23.3 mL/min/kg, the “half-life T1/2” value ([1]; intravenous, 0.5 mg/kg) was 59.4 min and the IC50 (p300) was 2.88 nM. It also gave an IC50 (CBP) of 0.67 nM.

Molecule COC1CCC(n2c([C@H]3C[C@@H]4C[C@@H]4C(=O)N3c3ccc(F)c(F)c3)nc3cc(-c4c(C)noc4C)ccc32)CC1 (single isomer, unassigned) [Compound 3C] has an IC50 (p300) of 14.1 nM.

Molecule Cc1noc(C)c1-c1ccc2c(c1)nc([C@H]1CCCC(=O)N1c1ccc(F)c(F)c1)n2C1CC2C(C1)C2(F)F (some centres unmarked) [Compound 2B] has an IC50 (p300) of 3.54 nM and an IC50 (CBP) of 0.67 nM.

In the case of COC1CCC(n2c([C@@H]3CN(C)C(=O)N3c3ccc(F)c(F)c3)nc3cc(-c4c(C)noc4C)ccc32)CC1 (some centres unmarked) [Compound 4A], the IC50 (p300) is reported as 11.3 nM.
